According to patent publication US20110038885A1, “CHEMOKINE ANALOGS” (priority 2007, published 2011):
Bridge positions count the residues as written; N and C are the ends. Square brackets hold non-standard residues; d marks the D form. Peptide text beside a SMILES is read from it. * marks the point of attachment. Lauroyl = CCCCCCCCCCCC(=O)*; Octanoyl = CCCCCCCC(=O)*; Dap = NC[C@H](N)C(=O)O; AEEA = NCCOCCOCC(=O)O; Aoc = NCCCCCCCC(=O)O

Legend:
[1] = test system: MCP-1; assay: In vitro chemotaxis (trans-well migration) v MCP-1; type: cell-based, human
Method in brief: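 Human THP-1 monocytes (10^4-10^6) with agent at varying concentrations in upper trans-well chamber; IL-8 or MCP-1 in lower chamber at a migration-inducing concentration, 37° C for e.g. 4 hours. Migrated cells quantified by MTT (595 nm) against a THP-1 standard curve; cytotoxicity and non-chemokine chemoattractant controls run.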

[2] = test system: IL-8; assay: In vitro chemotaxis, inhibition v IL-8; type: cell-based, human; set-up: concentration or dose not given beside the values
Method: To determine whether an agent inhibits a chemokine-induced activity, such as macrophage recruitment, varying amounts of the agent are mixed with cells in the presence of a known chemoattractant. For example, a range of known concentrations of an agent, e.g., a chemokine peptide, is incubated with a defined number (e.g., 10^4-10^6) of human THP-1 monocyte cells in individual wells of the top compartment of a trans-well plate. Chemokine, at a concentration known to cause significant migration of THP-1 cells in the trans-well migration assay, is placed in the lower compartment of a trans-well plate. Cells are then incubated at 37° C. for a period sufficient to allow migration, e.g., 4 hours. After incubation, the cells are gently removed from the top of the filter with a pipette, 20 μl of 20 mM EDTA in simple PBS is added into each top well, and incubated for 20 minutes at 4° C. The filter is carefully flushed with media using a gentle flow, and removed. A standard curve consisting of a two-fold dilution series of THP-1 cells (in 29 μl) is placed to accurately quantify the number of cells that have migrated. Migrated cells are stained with 3 μl of MTT stock dye solution which is added directly into each well (5 mg/ml in RPMI-1640 without phenol red) (Sigma Chemical Co., St. Louis, Mo., USA) and incubated at 37° C. for 4 hours. The media is carefully aspirated from each well, and the converted dye is solubilized by 20 μl of DMSO. Absorbance of converted dye is measured at a wavelength of 595 nm using an ELISA plate reader. The number of migrated cells in each well is then determined by interpolation of the standard curve (see also Imai et al., J. Biol. Chem., 272:15036, 1997). Any method suitable for counting cells can be used, for example, counting with a hemocytometer, incubation of the cells with MTT (see above), or FACS analysis. A negative control assay is also performed, using TGFβ or another non-chemokine chemoattractant (e.g., IL1β or TNFα). To assess whether the agent is cytotoxic, the same concentrations of agent are incubated with THP-1 cells. Agents which 1) are not cytotoxic at levels which inhibit migration, 2) are ineffective at inhibiting the negative control-induced migration, and 3) reduce or inhibit chemokine-induced THP-1 migration, are agents which fall within the scope of the invention.

Row | SMILES | EC50 [1] | v IL-8 inhibition (%) [2]
1 | CC[C@H](C)[C@@H]1NC(=O)[C@@H](NC(=O)[C@H](Cc2c[nH]c3ccccc23)NC(=O)[C@@H](N)CCCCN)CSSC[C@@H](C(N)=O)NC(=O)[C@H](CCC(N)=O)NC1=O [Example 15, Lys-Trp-c(Cys-Ile-Gln-Cys)-NH2] (H-KWCIQC-NH2; disulfide 3-6) | 3000 nM | 10.5%
2 | CC[C@H](C)[C@@H]1NC(=O)[C@@H](NC(=O)[C@H](Cc2c[nH]c3ccccc23)NC(=O)[C@H](CCCCN)NC(=O)[C@H](CCC(N)=O)NC(=O)[C@H](CCCCN)NC(=O)[C@@H]2CCCN2C(=O)[C@H](CC(=O)O)NC(=O)[C@@H](N)CC(C)C)CSSC[C@@H](C(N)=O)NC(=O)[C@H](CCC(N)=O)NC1=O [Example 14, Leu-Asp-Pro-Lys-Gln-Lys-Trp-c(Cys-Ile-Gln-Cys)-NH2] (H-LDPKQKWCIQC-NH2; disulfide 8-11) | 2000 nM | 10.5%
3 | CCCCCCCC(=O)NCCCC[C@@H]1NC(=O)[C@@H](CC(=O)O)NC(=O)[C@H]2CCCN2C(=O)[C@@H](CCCCN)NC(=O)[C@@H](CCC(N)=O)NC(=O)[C@@H](CCCCN)NC(=O)[C@@H](Cc2c[nH]c3ccccc23)NC(=O)[C@@H]([C@H](C)CC)NC(=O)[C@@H](CCC(N)=O)NC(=O)[C@H](N)CSSC[C@H](C(=O)O)NC(=O)[C@@H](CC(C)C)NC1=O [Example 154, c(D-Cys-D-Gln-D-Ile-D-Trp-D-Lys-D-Gln-D-Lys-D-Pro-D-Asp-Lys(Nε-octanoyl)-D-Leu-D-Cys)-OH] (H-[dC][dQ][dI][dW][dK][dQ][dK][dP][dD]K(Octanoyl)[dL][dC]-OH; disulfide 1-12) | > 1000 nM | 9.8%
4 | CC[C@H](C)[C@@H]1NC(=O)[C@H](Cc2c[nH]c3ccccc23)NC(=O)[C@H](CCCCN)NC(=O)[C@@H](NC(=O)[C@H](CCC(N)=O)NC(=O)[C@H](CCCCN)NC(=O)[C@@H]2CCCN2C(=O)[C@H](CC(=O)O)NC(=O)[C@H](CC(C)C)NC(C)=O)CSSC[C@@H](C(N)=O)NC(=O)[C@H](CCC(N)=O)NC1=O [Example 23, Ac-Leu-Asp-Pro-Lys-Gln-c(Cys-Lys-Trp-Ile-Gln-Cys)-NH2] (Ac-LDPKQCKWIQC-NH2; disulfide 6-11) | > 1000 nM | 13.4%
5 | CC[C@H](C)[C@@H]1NC(=O)[C@H](Cc2c[nH]c3ccccc23)NC(=O)[C@H](CCCCN)NC(=O)[C@H](CCC(N)=O)NC(=O)[C@@H](NC(=O)[C@H](CCCCN)NC(=O)[C@@H]2CCCN2C(=O)[C@@H](N)CC(=O)O)CSSC[C@@H](C(N)=O)NC(=O)[C@H](CCC(N)=O)NC1=O [Example 41, Asp-Pro-Lys-c(Cys-Gln-Lys-Trp-Ile-Gln-Cys)-NH2] (H-DPKCQKWIQC-NH2; disulfide 4-10) | 80 nM | 67.8%
6 | CC[C@H](C)[C@@H]1NC(=O)[C@H](Cc2c[nH]c3ccccc23)NC(=O)[C@H](CCCCN)NC(=O)[C@H](CCC(N)=O)NC(=O)[C@H](CCCCN)NC(=O)[C@@H]2CCCN2C(=O)[C@H](CC(=O)O)NC(=O)[C@H](CC(C)C)NC(=O)[C@@H](NC(=O)[C@@H](CC(=O)O)NC(=O)[C@H](N)CCCCN)CSSC[C@@H](C(N)=O)NC(=O)[C@H](CCC(N)=O)NC1=O [Example 167, D-Lys-D-Asp-c(Cys-Leu-Asp-Pro-Lys-Gln-Lys-Trp-Ile-Gln-Cys)-NH2] (H-[dK][dD]CLDPKQKWIQC-NH2; disulfide 3-13) | 25 nM | 99.6%
7 | CC[C@H](C)[C@@H]1NC(=O)[C@H](Cc2c[nH]c3ccccc23)NC(=O)[C@H](CCCCN)NC(=O)[C@H](CCC(N)=O)NC(=O)[C@H](CCCCN)NC(=O)[C@@H]2CCCN2C(=O)[C@@H](N)CSSC[C@@H](C(N)=O)NC(=O)[C@H](CCC(N)=O)NC1=O [Example 46, c(Cys-Pro-Lys-Gln-Lys-Trp-Ile-Gln-Cys)-NH2] (H-CPKQKWIQC-NH2; disulfide 1-9) | 150 nM | 52.4%
8 | CC[C@@H](C)[C@H]1NC(=O)[C@@H](CCC(N)=O)NC(=O)[C@H](N)CSSC[C@H](C(=O)NCCOCCOCC(=O)NCCCCCCCC(=O)O)NC(=O)[C@@H](CC(C)C)NC(=O)[C@@H](CC(=O)O)NC(=O)[C@H]2CCCN2C(=O)[C@@H](CCCCN)NC(=O)[C@@H](CCC(N)=O)NC(=O)[C@@H](CCCCN)NC(=O)[C@@H](Cc2c[nH]c3ccccc23)NC1=O [Example 138, c(D-Cys-D-Gln-D-Ile-D-Trp-D-Lys-D-Gln-D-Lys-D-Pro-D-Asp-D-Leu-D-Cys)-Doc-Aoc-OH] (H-[dC][dQ][dI][dW][dK][dQ][dK][dP][dD][dL][dC][AEEA][Aoc]-OH; disulfide 1-11) | 20 nM | 98.4%
9 | CC[C@H](C)[C@@H]1NC(=O)[C@H](Cc2c[nH]c3ccccc23)NC(=O)[C@@H](NC(=O)[C@H](CCCCN)NC(=O)[C@H](CCC(N)=O)NC(=O)[C@H](CCCCN)NC(=O)[C@@H]2CCCN2C(=O)[C@H](CC(=O)O)NC(=O)[C@@H](N)CC(C)C)CSSC[C@@H](C(N)=O)NC(=O)[C@H](CCC(N)=O)NC1=O [Example 13, Leu-Asp-Pro-Lys-Gln-Lys-c(Cys-Trp-Ile-Gln-Cys)-NH2] (H-LDPKQKCWIQC-NH2; disulfide 7-11) | 8000 nM | 5.8%
10 | CCCCCCCCCCCC(=O)NCCCC[C@H](N)C(=O)N[C@H](C(=O)N[C@H]1CSSC[C@@H](C(N)=O)NC(=O)[C@H](CCC(N)=O)NC(=O)[C@H]([C@@H](C)CC)NC(=O)[C@H](Cc2c[nH]c3ccccc23)NC(=O)[C@H](CCCCN)NC(=O)[C@H](CCC(N)=O)NC(=O)[C@H](CCCCN)NC(=O)[C@@H]2CCCN2C(=O)[C@H](CC(=O)O)NC(=O)[C@H](CC(C)C)NC1=O)[C@@H](C)CC [Example 169, Lys(Nε-dodecanoyl)-Ile-c(Cys-Leu-Asp-Pro-Lys-Gln-Lys-Trp-Ile-Gln-Cys)-NH2] (H-K(Lauroyl)ICLDPKQKWIQC-NH2; disulfide 3-13) | > 1000 nM | 7.7%
11 | CC[C@H](C)[C@@H]1NC(=O)[C@H](Cc2c[nH]c3ccccc23)NC(=O)[C@H](CCCCN)NC(=O)[C@H](CCC(N)=O)NC(=O)[C@H](CCCCN)NC(=O)[C@@H]2CCCN2C(=O)[C@H](CC(=O)O)NC(=O)[C@H](CC(C)C)NC(=O)[C@H](N)CSSC[C@@H](C(=O)N[C@@H](CN)C(N)=O)NC(=O)[C@H](CCC(N)=O)NC1=O [Example 35, c(D-Cys-Leu-Asp-Pro-Lys-Gln-Lys-Trp-Ile-Gln-Cys)-Dap-NH2] (H-[dC]LDPKQKWIQC[Dap]-NH2; disulfide 1-11) | 50 nM | 91.9%
12 | CC[C@H](C)[C@@H]1NC(=O)[C@H](Cc2c[nH]c3ccccc23)NC(=O)[C@H](CCCCN)NC(=O)[C@H](CCC(N)=O)NC(=O)[C@H](CCCCN)NC(=O)[C@@H]2CCCN2C(=O)[C@H](CC(=O)O)NC(=O)[C@@H](NC(=O)[C@@H](N)CC(C)C)CSSC[C@@H](C(N)=O)NC(=O)[C@H](CCC(N)=O)NC1=O [Example 10, Leu-c(Cys-Asp-Pro-Lys-Gln-Lys-Trp-Ile-Gln-Cys)-NH2] (H-LCDPKQKWIQC-NH2; disulfide 2-11) | 10 nM | 102.2%
13 | CCCCCCCC(=O)N[C@@H](CN)C(=O)N[C@@H]1CSSC[C@H](C(N)=O)NC(=O)[C@@H](CC(C)C)NC(=O)[C@@H](CC(=O)O)NC(=O)[C@H]2CCCN2C(=O)[C@@H](CCCCN)NC(=O)[C@@H](CCC(N)=O)NC(=O)[C@@H](CCCCN)NC(=O)[C@@H](Cc2c[nH]c3ccccc23)NC(=O)[C@@H]([C@H](C)CC)NC(=O)[C@@H](CCC(N)=O)NC1=O [Example 160, Octanoyl-Dap-c(D-Cys-D-Gln-D-Ile-D-Trp-D-Lys-D-Gln-D-Lys-D-Pro-D-Asp-D-Leu-D-Cys)-NH2] (Octanoyl-[Dap][dC][dQ][dI][dW][dK][dQ][dK][dP][dD][dL][dC]-NH2; disulfide 2-12) | 25 nM | 100.2%
14 | CC[C@H](C)[C@@H]1NC(=O)[C@H](Cc2c[nH]c3ccccc23)NC(=O)[C@H](CCCCN)NC(=O)[C@H](CCC(N)=O)NC(=O)[C@H](CCCCN)NC(=O)[C@@H]2CCCN2C(=O)[C@@H](NC(C)=O)CSSC[C@@H](C(=O)N[C@H](CC(=O)O)C(=O)N[C@H](CC(C)C)C(N)=O)NC(=O)[C@H](CCC(N)=O)NC1=O [Example 158, Ac-c(Cys-Pro-Lys-Gln-Lys-Trp-Ile-Gln-Cys)-D-Asp-D-Leu-NH2] (Ac-CPKQKWIQC[dD][dL]-NH2; disulfide 1-9) | > 1000 nM | −17.9%
